Source: patent US9487510B2, “Substituted heterocyclic acetamides as kappa opioid receptor (KOR) agonists” (Dr. Reddy's Laboratories Ltd., priority 2012, dated 2016)
pEC50: −log10 of the molar value. Counter-ions that a name gives are not always drawn.

Target: human KOR receptor (Homo sapiens, UniProt P41145)
Test: IP-One HTRF assay, potency of KOR agonists, dose-response in transiently transfected COS-7 cells
Assay type: cell-based

Chain of human KOR receptor (P41145 whole entry): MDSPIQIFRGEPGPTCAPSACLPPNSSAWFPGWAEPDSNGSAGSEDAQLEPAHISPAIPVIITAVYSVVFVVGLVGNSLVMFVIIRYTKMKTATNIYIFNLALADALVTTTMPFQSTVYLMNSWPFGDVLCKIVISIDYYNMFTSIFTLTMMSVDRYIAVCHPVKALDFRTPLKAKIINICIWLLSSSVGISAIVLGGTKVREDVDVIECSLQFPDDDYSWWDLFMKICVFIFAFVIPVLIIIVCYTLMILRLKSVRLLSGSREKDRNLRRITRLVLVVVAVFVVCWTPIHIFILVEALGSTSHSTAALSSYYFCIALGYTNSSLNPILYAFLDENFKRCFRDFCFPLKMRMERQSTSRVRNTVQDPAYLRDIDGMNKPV

Row | Structure (SMILES) | pEC50
1 | CN(C(=O)Cc1ccc2c(c1)NC(=O)C2)[C@H](CN1CC[C@H](O)C1)c1cccc(-c2cscn2)c1 [Example 217, N-((S)-2-((S)-3-hydroxypyrrolidin-1-yl)-1-(3-(thiazol-4-yl)phenyl)ethyl)-N-methyl-2-(2-oxoindolin-6-yl)acetamide] | ≥ 7.30
2 | CN(C(=O)Cc1ccc2c(c1)NC(=O)C2(F)F)[C@H](CN1CC[C@H](O)C1)c1ccccc1 [Example 12, 2-(3,3-difluoro-2-oxoindolin-6-yl)-N-((S)-2-((S)-3-hydroxypyrrolidin-1-yl)-1-phenylethyl)-N-methylacetamide] | ≥ 7.30
3 | COC(=O)c1ccc(Cn2c(=O)oc3ccc(CC(=O)N(C)[C@H](CN4CC[C@H](O)C4)c4ccccc4)cc32)cc1 [Example 98, Methyl 4-((5-(2-(((S)-2-((S)-3-hydroxypyrrolidin-1-yl)-1-phenylethyl)(methyl)amino)-2-oxoethyl)-2-oxobenzo[d]oxazol-3(2H)-yl)methyl)benzoate] | ≥ 7.30
4 | CN(C(=O)Cc1ccc2c(c1)NC(=O)CS2)[C@H](CN1CC[C@H](O)C1)c1cccc(OCC(=O)O)c1 [Example 172, 2-(3-((S)-2-((S)-3-hydroxypyrrolidin-1-yl)-1-(N-methyl-2-(3-oxo-3,4-dihydro-2H-benzo[b][1,4]thiazin-6-yl)acetamido)ethyl)phenoxy)acetic acid] | ≥ 7.30
5 | Cc1noc(-c2cccc([C@@H](CN3CC[C@H](O)C3)N(C)C(=O)Cc3ccc4c(c3)NC(=O)C4)c2)n1 [Example 227, N-((S)-2-((S)-3-hydroxypyrrolidin-1-yl)-1-(3-(3-methyl-1,2,4-oxadiazol-5-yl)phenyl)ethyl)-N-methyl-2-(2-oxoindolin-6-yl)acetamide] | ≥ 7.30
6 | CN(C(=O)Cc1ccc2c(c1)NC(=O)C2)[C@H](CN1CC[C@H](O)C1)c1cccc(C(=O)O)c1 [Example 23, 3-((S)-2-((S)-3-hydroxypyrrolidin-1-yl)-1-(N-methyl-2-(2-oxoindolin-6-yl)acetamido)ethyl) benzoic acid] | ≥ 7.30
7 | CN(C(=O)Cc1ccc2c(c1)CS(=O)(=O)N2)[C@H](CN1CC[C@H](O)C1)c1ccccc1 [Example 10, 5-(2-(((S)-2-((S)-3-hydroxypyrrolidin-1-yl)-1-phenylethyl)(methyl)amino)-2-oxoethyl)-1,3-dihydrobenzo[c]isothiazol-1-ium 2,2-dioxide 2,2,2-trifluoroacetate] | 6.00 to 7.00
8 | CN(C(=O)Cc1ccc2c(c1)NC(=O)C2)[C@H](CN1CC[C@H](O)C1)c1cc(F)cc(C#N)c1 [Example 197, N-((S)-1-(3-cyano-5-fluorophenyl)-2-((S)-3-hydroxypyrrolidin-1-yl)ethyl)-N-methyl-2-(2-oxoindolin-6-yl)acetamide] | 7.00 to 7.29
9 | CN(C(=O)Cc1ccc2ncc(=O)[nH]c2c1)[C@H](CN1CC[C@H](O)C1)c1cccc(-c2noc(C(F)(F)F)n2)c1 [Example 34, N-((S)-2-((S)-3-hydroxypyrrolidin-1-yl)-1-(3-(5-(trifluoromethyl)-1,2,4-oxadiazol-3-yl)phenyl)ethyl)-N-methyl-2-(3-oxo-3,4-dihydroquinoxalin-6-yl)acetamide] | ≥ 7.30
10 | COc1cccc([C@@H](CN2CC[C@H](O)C2)N(C)C(=O)Cc2ccc3c(c2)NC(=O)CS3(=O)=O)c1 [Example 126, 2-(1,1-dioxido-3-oxo-3,4-dihydro-2H-benzo[b][1,4]thiazin-6-yl)-N-((S)-2-((S)-3-hydroxypyrrolidin-1-yl)-1-(3-methoxyphenyl)ethyl)-N-methylacetamide] | ≥ 7.30
11 | CC(C)(C)OC(=O)COc1cccc(C(CN2CC[C@H](O)C2)NC(=O)Cc2ccc3oc(=O)[nH]c3c2)c1 (mixture of isomers) [Example 74, (S)-tert-butyl 2-(3-(2-(3-hydroxypyrrolidin-1-yl)-1-(2-(2-oxo-2,3-dihydrobenzo[d]oxazol-5-yl)acetamido)ethyl)phenoxy)acetate] | ≥ 7.30
12 | C#Cc1cccc([C@@H](CN2CC[C@H](O)C2)N(C)C(=O)Cc2ccc3c(c2)NC(=O)CS3(=O)=O)c1 [Example 201, 2-(1,1-dioxido-3-oxo-3,4-dihydro-2H-benzo[b][1,4]thiazin-6-yl)-N-((S)-1-(3-ethynylphenyl)-2-((S)-3-hydroxypyrrolidin-1-yl)ethyl)-N-methylacetamide] | ≥ 7.30
13 | CN(C(=O)Cc1ccc2c(c1)NC(=O)CS2(=O)=O)C(CN1CC[C@H](O)C1)c1ccc(OC(F)(F)F)cc1 (stereo in doubt) [Example 142, 2-(1,1-dioxido-3-oxo-3,4-dihydro-2H-benzo[b][1,4]thiazin-6-yl)-N-((S)-2-((S)-3-hydroxypyrrolidin-1-yl)-1-(4-(trifluoromethoxy)phenyl)ethyl)-N-methylacetamide] | ≥ 7.30
14 | CN(C(=O)Cc1ccc2c(c1)N(C)S(=O)(=O)C2)[C@H](CN1CC[C@H](O)C1)c1cccc(-c2nn[nH]n2)c1 [Example 21, N-((S)-1-(3-(1H-tetrazol-5-yl)phenyl)-2-((S)-3-hydroxypyrrolidin-1-yl)ethyl)-N-methyl-2-(1-methyl-2,2-dioxido-1,3-dihydrobenzo[c]isothiazol-6-yl)acetamide] | 7.00 to 7.29
15 | CN(C(=O)Cc1ccc2c(c1)S(=O)(=O)NC2=O)[C@H](CN1CC[C@H](O)C1)c1ccccc1 [Example 8, 2-(1,1-dioxido-3-oxo-2,3-dihydrobenzo[d]isothiazol-6-yl)-N-((S)-2-((S)-3-hydroxypyrrolidin-1-yl)-1-phenylethyl)-N-methylacetamide] | ≤ 6.00
16 | CN(C(=O)Cc1ccc2c(c1)NC(=O)CS2(=O)=O)C(CN1CC[C@H](O)C1)C1CCOCC1 (stereo partly drawn) [Example 17, 2-(1,1-dioxido-3-oxo-3,4-dihydro-2H-benzo[b][1,4]thiazin-6-yl)-N-(2-((S)-3-hydroxypyrrolidin-1-yl)-1-(tetrahydro-2H-pyran-4-yl)ethyl)-N-methylacetamide-2,2,2-trifluoroacetate] | 6.00 to 7.00
17 | CC(C)(C)OC(=O)Cn1c(=O)oc2ccc(CC(=O)N[C@H](CN3CCCC3)c3ccccc3)cc21 [Example 82, (S)-tert-butyl-2-(2-oxo-5-(2-oxo-2-(1-phenyl-2-(pyrrolidin-1-yl)ethylamino)ethyl)benzo[d]oxazol-3(2H)-yl)acetate] | ≥ 7.30
18 | CN(C(=O)Cc1ccc2c(c1)NC(=O)C2)[C@H](CN1CC[C@H](F)C1)c1cccc(C(N)=O)c1 [Example 165, 3-((S)-2-((S)-3-fluoropyrrolidin-1-yl)-1-(N-methyl-2-(2-oxoindolin-6-yl)acetamido)ethyl)benzamide] | 6.00 to 7.00
19 | O=C(O)COc1cccc(C(CN2CC[C@H](O)C2)NC(=O)Cc2ccc3c(c2)NC(=O)C3)c1 (mixture of isomers) [Example 100, (S)-2-(3-(2-(3-hydroxypyrrolidin-1-yl)-1-(2-(2-oxoindolin-6-yl)acetamido)ethyl)phenoxy)acetic acid hydrochloride] | ≥ 7.30
20 | CCN(CC)C(=O)c1cccc([C@@H](CN2CC[C@H](O)C2)N(C)C(=O)Cc2ccc3ncc(=O)[nH]c3c2)c1 [Example 209, N,N-diethyl-3-((S)-2-((S)-3-hydroxypyrrolidin-1-yl)-1-(N-methyl-2-(3-oxo-3,4-dihydroquinoxalin-6-yl)acetamido)ethyl)benzamide 2,2,2-trifluoroacetate] | ≥ 7.30
21 | CN(C(=O)Cc1ccc2sc(=O)[nH]c2c1)[C@H](CN1CC[C@H](O)C1)c1cccc(OCC(=O)O)c1 [Example 166, 2-(3-((S)-2-((S)-3-hydroxypyrrolidin-1-yl)-1-(N-methyl-2-(2-oxo-2,3-dihydrobenzo [d]thiazol-5-yl)acetamido)ethyl)phenoxy)acetic acid] | ≥ 7.30
22 | CN(C(=O)Cc1ccc2c(c1)NC(=O)CS2)[C@H](CN1CC[C@H](O)C1)c1cccc(OCC(N)=O)c1 [Example 175, N-((S)-1-(3-(2-amino-2-oxoethoxy)phenyl)-2-((S)-3-hydroxypyrrolidin-1-yl)ethyl)-N-methyl-2-(3-oxo-3,4-dihydro-2H-benzo[b][1,4]thiazin-6-yl)acetamide] | ≥ 7.30
23 | CN(C(=O)Cc1ccc2c(c1)NC(=O)C2)[C@H](CN1CC[C@H](F)C1)c1cccc(C(=O)O)c1 [Example 28, 3-((S)-2-((S)-3-fluoropyrrolidin-1-yl)-1-(N-methyl-2-(2-oxoindolin-6-yl)acetamido)ethyl) benzoic acid] | 6.00 to 7.00
24 | CN(C(=O)Cc1ccc2sc(=O)[nH]c2c1)[C@H](CN1CC[C@H](O)C1)c1cccc(-c2ncon2)c1 [Example 189, N-((S)-1-(3-(1,2,4-oxadiazol-3-yl)phenyl)-2-((S)-3-hydroxypyrrolidin-1-yl)ethyl)-N-methyl-2-(2-oxo-2,3-dihydrobenzo[d]thiazol-5-yl)acetamide 2,2,2-trifluoroacetate] | ≥ 7.30
25 | CN(C(=O)Cc1ccc2c(c1)NS(=O)(=O)C2)[C@H](CN1CC[C@H](O)C1)c1cc(F)cc(C#N)c1 [Example 199, N-((S)-1-(3-cyano-5-fluorophenyl)-2-((S)-3-hydroxypyrrolidin-1-yl)ethyl)-2-(2,2-dioxido-1,3-dihydrobenzo[c]isothiazol-6-yl)-N-methylacetamide] | ≥ 7.30
26 | CN(C(=O)Cc1ccc2c(c1)NC(=O)CS2)[C@H](CN1CC[C@H](O)C1)c1cccc(C(F)(F)F)c1 [Example 132, N-((S)-2-((S)-3-hydroxypyrrolidin-1-yl)-1-(3-(trifluoromethyl)phenyl)ethyl)-N-methyl-2-(3-oxo-3,4-dihydro-2H-benzo[b][1,4]thiazin-6-yl)acetamide] | ≥ 7.30
27 | CN(C(=O)Cc1ccc2c(c1)NS(=O)(=O)C2)[C@H](CN1CC[C@H](O)C1)c1cccc(-c2noc(C(F)(F)F)n2)c1 [Example 187, 2-(2,2-dioxido-1,3-dihydrobenzo [c]isothiazol-6-yl)-N-((S)-2-((S)-3-hydroxypyrrolidin-1-yl)-1-(3-(5-(trifluoromethyl)-1,2,4-oxadiazol-3-yl)phenyl)ethyl)-N-methylacetamide 2,2,2-trifluoroacetate] | ≥ 7.30
28 | CN(C(=O)Cc1ccc2oc(=O)[nH]c2c1)C(CN1CC[C@H](O)C1)c1cccc(OCC(=O)O)c1 (stereo partly drawn) [Example 94, (S)-2-(3-(2-(3-hydroxypyrrolidin-1-yl)-1-(N-methyl-2-(2-oxo-2,3-dihydrobenzo[d]oxazol-5-yl)acetamido)ethyl)phenoxy)acetic acid triflouro acetate] | ≥ 7.30
